This is an account of results in ChEMBL document CHEMBL5512665, “A CARM1 Inhibitor Potently Suppresses Breast Cancer Both In Vitro and In Vivo” (J Med Chem, 2024).

The source made the active and inactive calls. The rule behind the calls is not given here.

The EC50 is the midpoint of the concentration-response curve.

Data set [1] has as its system MCF7. Kind of data set: Antitumor activity against human MCF7 cells xenografted in BALB/C mouse assessed as upregulation of IFNalpha gene expression at 50 mg/kg,ip administrated every other day for 29 days by RT-qPCR analysis. The format is functional, organism-based. Particulars: time 29.0 day. On the technique in general: In xenograft studies the graft and the host belong to different species.

The subject of data set [2] is 4T1. As to the kind of experiment: Antitumor activity against mouse 4T1 cells implanted in BALB/C mouse assessed as upregulation of IFIT1 gene expression at 25 mg/kg,ip administrated daily for 14 days by RT-qPCR analysis. The format is functional, organism-based. Particulars: time 14.0 day. Background: Real-time PCR tracks product formation cycle by cycle.
The subject of data set [3] is 4T1. As to the kind of experiment: Antitumor activity against mouse 4T1 cells implanted in BALB/C mouse assessed as upregulation of IFIT1 gene expression at 50 mg/kg,ip administrated daily for 14 days by RT-qPCR analysis. In kind it is functional, organism-based. Particulars: time 14.0 day.
The subject of data set [4] is MCF7. Kind of data set: Synergistic antiproliferative activity against human MCF7 cells assessed as inhibition of cell growth at 2.5 uM incubated for 7 days in presence of fulvestrant by celltiter 96 aqueous one solution cell proliferation assay. In kind it is functional, cell-based. Particulars: time 7.0 day.
In a further data set the test system is HCC1806. Kind of data set: Antiproliferative activity against human HCC1806 cells assessed as reduction in cell growth incubated for 7 days by celltiter 96 aqueous one solution cell proliferation assay. Particulars: HCC1806, 168 h.
Data set [5] is described as follows: Toxicity in BALB/C mouse implanted with mouse 4T1 cells assessed as change in heart morphology at 50 mg/kg,ip administrated daily for 14 days. Particulars: in vivo, 336 h, time 14 day. In kind it is organism-based.
Data set [6] concerns MCF7. Kind of data set: Synergistic antitumor activity against human MCF7 cells xenografted in BALB/C mouse assessed as downregulation of CCND1 gene expression at 25 mg/kg,ip administrated every other day for 15 days in presence of 5 mg/kg tamoxifen oral administration by RT-qPCR analysis. In kind it is functional, organism-based. Particulars: time 15.0 day.

For the compound `Cc1ccc(-c2nc(N3CCN(CCN(C)C)CC3)ncc2-c2ccoc2)cc1.Cl.Cl`, the outcome in the data set on MCF7 [1], in the data set on 4T1 [2], with 4T1 [3], with MCF7 [4] and in the data set with MCF7 [6] was Active. In addition, the EC50 in the data set with HCC1806 turned out to be 2830 nM. Further, the Activity result in data set [5] was “Non-Toxic”.
